The values that follow come from US20240261249A1, “NOVEL SQUARAMIDE DERIVATIVE AND USE THEREOF” (PUSAN NATIONAL UNIVERSITY INDUSTRY-UNIVERSITY COOPERATION …, priority 2021, published 2024).

Holding throughout (type): cell-based
The subject of experiment [1] is K562 cell line. The experiment is described as follows: CCK-8 anti-proliferative assay, K562. As to conditions: Homo sapiens, 72 h, K562, culture for 3 days. Here is the method:
CCK-8 assay (cell counting kit-8 assay, Dojindo, Kumamoto, Japan) was performed. The K562 cell line was cultured in RPMI medium supplemented with 10% FBS and 1% ABAM at 37° C. in the presence of 5% CO2. Cells were treated with test compounds at concentrations of 0 μM, 1.25 μM, 2.5 μM, 5 μM, 10 μM, and 20 μM, respectively. After culture for 3 days, 10 μL of CCK-8 solution was treated and cultured for 4 hours. Subsequently, the absorbance was measured at 450 nm to obtain the IC50 value of each compound.
The experimental values for the K562 cell line are identical to biological Example 2.

The subject of experiment [2] is Phospho-eIF2α (Ser51). The experiment is described as follows: Phospho-eIF2α (Ser51) Sandwich ELISA in K562 cells. The note with it: Homo sapiens, K562, 6 h, serum-free RPMI, 10 μM compound, control = 1, read-out: eIF2α phosphorylation, absorbance standardized to control (DMSO-treated) set to 1, at 10 μM. In outline:
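K562 cells in serum-free RPMI (37 °C, 5% CO2) were exposed to compounds at 10 μM for 6 h, then lysed, and 50 μg protein was run in the sandwich ELISA. Absorbance was normalised to the DMSO control set to 1.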

For experiment [3], the system named is PBMC (peripheral blood monocyte cells isolated from normal donors). The experiment is described as follows: CCK-8 assay, PBMC (normal cells). The method, then:
PBMC (peripheral blood monocyte cells isolated from normal donors) cell lines were dispensed in RPMI medium supplemented with 10% FBS and 1% ABAM at 37° C. in the presence of 5% CO2, and then the test compounds were treated at concentrations of 0 μM, 1.25 μM, 2.5 μM, 5 μM, 10 μM, and 20 μM, respectively. After culture for 3 days, 10 μL of CCK-8 solution was treated and cultured for 4 hours. Subsequently, the absorbance at 450 nm was measured to obtain the IC50 value of each compound.

Where two headings read alike, the source gives them in different places.

With `CS(=O)(=O)c1ccc(O[C@H]2CC[C@H](Nc3c(Nc4cc(C#N)cc(C(F)(F)F)c4)c(=O)c3=O)CC2)cc1` [Compound 86, 3-((2-(((1,4-trans)-4-(4-(Methylsulfonyl)phenoxy)cyclohexyl)amino)-3,4-dioxocyclobut-1-en-1-yl)amino)-5-(trifluoromethyl)benzonitrile], the 50% inhibitory concentration (IC50) in experiment [1] (CCK-8, Table 2, read-out: IC50) stood at 14.2 µM; in experiment [1] (CCK-8, Table 3 (identical to Example 2), tested 0-20 μM, read-out: IC50 K562) it was 14.2 µM; in experiment [3] (72 h, PBMC normal cells, culture for 3 days, CCK-8, tested 0-20 μM), 21 µM. The activity at 10 µM in experiment [2] is 168%. Moreover, the “SI (selectivity index)” value in experiment [3] (K562 cells compared to PBMC) is given as 1.31.
